Measurements as given in ChEMBL document CHEMBL5506022, “Discovery of Novel Dual Inhibitors Targeting Mutant IDH1 and NAMPT for the Treatment of Glioma with IDH1Mutation” (J Med Chem, 2024).
Activity calls are given as the source filed them. No cut-off for these calls is given here.

What was measured:
[1] = Half-life in Sprague-Dawley rat at 10 mg/kg, po measured after 24 hrs by LC-MS/MS analysis; format: ADME, organism-based; conditions: in vivo
[2] = target: Voltage-gated inwardly rectifying potassium channel KCNH2 (Homo sapiens, UniProt Q12809); assay: Inhibition of human ERG in CHO cells incubated for 2.5 mins by Qpatch electrogram analysis; format: toxicity, cell-based
Chain of Voltage-gated inwardly rectifying potassium channel KCNH2 (Q12809 whole entry): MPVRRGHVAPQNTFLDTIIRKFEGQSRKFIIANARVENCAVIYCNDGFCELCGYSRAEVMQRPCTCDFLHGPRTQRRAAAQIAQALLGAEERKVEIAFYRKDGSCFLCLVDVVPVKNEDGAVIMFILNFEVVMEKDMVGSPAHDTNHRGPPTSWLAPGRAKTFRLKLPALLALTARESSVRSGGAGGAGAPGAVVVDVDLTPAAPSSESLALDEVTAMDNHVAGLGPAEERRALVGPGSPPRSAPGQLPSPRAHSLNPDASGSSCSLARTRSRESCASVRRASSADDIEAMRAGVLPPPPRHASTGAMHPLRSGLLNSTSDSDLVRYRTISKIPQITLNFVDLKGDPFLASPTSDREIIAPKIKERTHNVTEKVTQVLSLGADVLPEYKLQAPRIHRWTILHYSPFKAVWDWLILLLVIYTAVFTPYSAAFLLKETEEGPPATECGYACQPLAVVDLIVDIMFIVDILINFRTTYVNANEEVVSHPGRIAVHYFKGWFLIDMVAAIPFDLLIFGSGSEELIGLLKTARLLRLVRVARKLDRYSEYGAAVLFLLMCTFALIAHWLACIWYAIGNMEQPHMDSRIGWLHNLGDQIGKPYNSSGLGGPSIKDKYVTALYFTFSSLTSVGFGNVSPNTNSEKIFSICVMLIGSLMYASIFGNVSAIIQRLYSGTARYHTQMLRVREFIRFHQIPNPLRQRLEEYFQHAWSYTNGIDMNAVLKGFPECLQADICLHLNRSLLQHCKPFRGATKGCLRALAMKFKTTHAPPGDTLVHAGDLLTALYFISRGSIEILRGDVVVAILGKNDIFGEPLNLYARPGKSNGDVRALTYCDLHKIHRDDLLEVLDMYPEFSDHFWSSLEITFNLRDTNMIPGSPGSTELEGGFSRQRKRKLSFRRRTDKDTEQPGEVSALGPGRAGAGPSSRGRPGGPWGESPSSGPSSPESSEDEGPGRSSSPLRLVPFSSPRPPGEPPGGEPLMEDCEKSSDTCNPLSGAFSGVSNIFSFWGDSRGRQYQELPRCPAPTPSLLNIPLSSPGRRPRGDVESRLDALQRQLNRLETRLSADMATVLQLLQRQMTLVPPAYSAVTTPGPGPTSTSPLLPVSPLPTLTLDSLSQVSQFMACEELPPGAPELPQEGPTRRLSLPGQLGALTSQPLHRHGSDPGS

[3] = tested on: U-87 MG; format: functional, Homo sapiens, U-87MG ATCC; conditions: dose 2 µM; time 48 hrs
[4] = target: Isocitrate dehydrogenase [NADP] cytoplasmic (Homo sapiens, UniProt O75874, R132C); assay: Inhibition of recombinant IDH1 R132C mutant (unknown origin) using alpha-ketoglutarate as substrate incubated for 60 mins in presence of NADPH by fluorescence microplate reader
Chain of Isocitrate dehydrogenase [NADP] cytoplasmic (Homo sapiens, UniProt O75874, R132C) (O75874 2-414 R132C limits assumed): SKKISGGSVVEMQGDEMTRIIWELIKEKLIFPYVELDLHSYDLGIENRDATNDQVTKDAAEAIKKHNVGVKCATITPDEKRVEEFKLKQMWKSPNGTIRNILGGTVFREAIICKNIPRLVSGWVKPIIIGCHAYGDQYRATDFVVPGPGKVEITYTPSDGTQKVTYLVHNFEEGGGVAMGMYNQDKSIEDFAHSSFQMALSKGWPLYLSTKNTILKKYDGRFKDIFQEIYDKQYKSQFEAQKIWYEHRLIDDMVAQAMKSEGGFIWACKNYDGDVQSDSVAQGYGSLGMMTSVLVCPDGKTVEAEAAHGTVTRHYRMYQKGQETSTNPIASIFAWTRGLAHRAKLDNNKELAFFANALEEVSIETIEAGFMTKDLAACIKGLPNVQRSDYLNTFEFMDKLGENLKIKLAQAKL

[5] = tested on: U-87MG ATCC; format: functional, cell-based; conditions: Homo sapiens, dose 0.5-2 µM, time 24.0 hrs
[6] = AUC (0 to infinity) in Sprague-Dawley rat at 10 mg/kg, po measured after 24 hrs by LC-MS/MS analysis; format: ADME, organism-based; conditions: in vivo
[7] = Tmax in Sprague-Dawley rat at 1 mg/kg, iv measured after 24 hrs by LC-MS/MS analysis; format: ADME, organism-based; conditions: in vivo
[8] = tested on: U-87 MG; format: functional, cell-based, U-87MG ATCC; conditions: Homo sapiens, 24 h
[9] = tested on: U-87MG ATCC; format: functional, cell-based; conditions: Homo sapiens, dose 0.5-2 µM, time 24.0 hrs; remark: listed apart in the source
[10] = target: Nicotinamide phosphoribosyltransferase (Homo sapiens, UniProt P43490)
Chain of Nicotinamide phosphoribosyltransferase (P43490 whole entry): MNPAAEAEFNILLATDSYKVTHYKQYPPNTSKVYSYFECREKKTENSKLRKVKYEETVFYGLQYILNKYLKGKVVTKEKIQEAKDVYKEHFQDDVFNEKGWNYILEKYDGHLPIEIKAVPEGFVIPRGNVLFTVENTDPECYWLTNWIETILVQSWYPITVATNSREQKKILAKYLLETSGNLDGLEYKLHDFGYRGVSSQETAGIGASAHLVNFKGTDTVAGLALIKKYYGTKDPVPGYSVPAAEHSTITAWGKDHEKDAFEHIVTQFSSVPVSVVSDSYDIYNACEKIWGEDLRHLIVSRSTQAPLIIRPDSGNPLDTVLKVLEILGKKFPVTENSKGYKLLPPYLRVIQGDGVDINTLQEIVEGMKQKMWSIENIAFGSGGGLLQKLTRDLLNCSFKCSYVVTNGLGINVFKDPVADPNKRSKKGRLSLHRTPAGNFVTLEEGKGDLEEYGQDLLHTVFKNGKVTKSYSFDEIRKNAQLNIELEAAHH

[11] = tested on: U-87 MG; format: functional, organism-based; conditions: Homo sapiens; U-87MG ATCC; dose 10-40 mg/kg, route iv, time 35.0 day
[12] = tested on: U-87MG ATCC; format: functional, cell-based; conditions: Homo sapiens, dose 0.5-2 µM, time 24.0 hrs; remark: listed apart in the source
[13] = tested on: U-87MG ATCC; assay: Effect on intracellular NADP+ level in human U-87 MG cells harboring wildtype IDH1; format: functional, cell-based
[14] = tested on: U-87 MG; assay: cells; conditions: Homo sapiens, 48 h, read-out: Activity
[15] = tested on: U-87 MG; format: functional, Homo sapiens, U-87MG ATCC; conditions: dose 2 µM; time 48 hrs; remark: listed apart in the source
[16] = tested on: U-87 MG; format: functional, Homo sapiens, U-87MG ATCC; conditions: dose 0.5 µM; time 48 hrs
[17] = Clearance in Sprague-Dawley rat at 1 mg/kg, iv measured after 24 hrs by LC-MS/MS analysis; format: ADME, organism-based; conditions: in vivo
[18] = tested on: U-87 MG; assay: Antiproliferative activity against human U-87 MG cells harboring wildtype IDH1 assessed as inhibition of cell growth incubated for 24 hrs by CCK8 assay; format: functional, cell-based, U-87MG ATCC
[19] = tested on: U-87 MG; format: functional, U-87MG ATCC; conditions: Homo sapiens, time 48 hrs, read-out: Activity
[20] = target: Isocitrate dehydrogenase [NADP] cytoplasmic (Homo sapiens, UniProt O75874); assay: Inhibition of wildtype IDH1 (unknown origin) using DL-isocitrate as substrate incubated for 60 mins in presence of NADP by fluorescence microplate reader
Chain of Isocitrate dehydrogenase [NADP] cytoplasmic (Homo sapiens, UniProt O75874) (O75874 whole entry): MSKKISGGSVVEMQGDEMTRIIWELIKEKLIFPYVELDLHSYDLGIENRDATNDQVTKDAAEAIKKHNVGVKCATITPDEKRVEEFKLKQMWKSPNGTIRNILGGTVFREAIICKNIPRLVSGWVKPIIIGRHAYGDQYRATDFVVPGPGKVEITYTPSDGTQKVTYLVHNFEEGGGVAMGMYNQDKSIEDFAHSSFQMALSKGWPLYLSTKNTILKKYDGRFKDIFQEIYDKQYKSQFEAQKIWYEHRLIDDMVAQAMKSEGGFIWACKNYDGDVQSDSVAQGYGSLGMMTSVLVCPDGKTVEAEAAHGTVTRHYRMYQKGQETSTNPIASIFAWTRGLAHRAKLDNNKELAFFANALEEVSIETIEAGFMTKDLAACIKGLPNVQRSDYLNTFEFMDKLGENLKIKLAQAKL

[21] = AUC in ICR mouse brain at 5 mg/kg, iv measured after 24 hrs by LC-MS/MS analysis; format: ADME, organism-based
[22] = tested on: U-87 MG; format: functional, cell-based; conditions: Homo sapiens; U-87MG ATCC; dose 10-40 mg/kg, route iv, time 35.0 day
[23] = Cmax in Sprague-Dawley rat at 1 mg/kg, iv measured after 24 hrs by LC-MS/MS analysis; format: ADME, organism-based; conditions: in vivo
[24] = tested on: U-87 MG; format: functional, cell-based, U-87MG ATCC; conditions: Homo sapiens, 48 h
[25] = tested on: U-87MG ATCC; format: functional, cell-based; conditions: Homo sapiens, dose 0.5-2 µM, time 48.0 hrs
[26] = tested on: U-87 MG; format: functional, organism-based; conditions: Homo sapiens; U-87MG ATCC; dose 10-40 mg/kg, route iv, time 35.0 day; remark: listed apart in the source
[27] = Half-life in Sprague-Dawley rat at 1 mg/kg, iv measured after 24 hrs by LC-MS/MS analysis; format: ADME, organism-based; conditions: in vivo
[28] = tested on: U-87 MG; format: functional, Homo sapiens, U-87MG ATCC; conditions: dose 0.5 µM; time 48 hrs; remark: listed apart in the source

Work on C[C@H](Nc1nccc(N2C(=O)OC[C@@H]2[C@H](C)F)n1)c1ccc(-c2ccc(NC(=O)COc3cccnc3)cc2)cc1 yielded a half-life [1] of 2.06 h, an IC50 [2] of over 40000 nM and an Activity [3] of 25.5%. The IC50 [4] was 65.1 nM, the Activity [5] was “Active” and the AUC(0-inf) [6] was 921 ng·h/mL. For the same molecule, the Tmax [7] was 1.98 min, the IC50 [8] was 890 nM and the Activity [9] was “Active”. For the same molecule, the IC50 [10] was 49.2 nM, the Activity [11] was “Active” and the Activity [12] was “Active”. For the same molecule, the Activity [13] was “inactive”, the viability at 1 µM [14] was 35.5% and the Activity [15] was 4.51%. For the same molecule, the Activity [16] was 21.9%, the clearance [17] was 4.33 mL/min/kg and the IC50 [18] was 1260 nM. The viability at 0.5 µM [19] was 44.6%, the IC50 [20] was 8950 nM and the AUC at 24 h [21] was 15600 ng·h/mL. For the same molecule, the Activity [22] was “Dose-Dependent Effect”, the Cmax [23] was 4070 ng/mL and the IC50 [24] was 470 nM. For the same molecule, the Activity [25] was “Dose-Dependent Effect”, the Activity [26] was “Active” and the half-life [27] was 1.16 h. The Activity [28] was 30.6%.
